Assay results published in patent publication US20110314564A1, “ENZYMES AND METHODS FOR HYDROLYSING PHENYLUREAS, CARBAMATES AND ORGANOPHOSPHATES” (priority 2008, published 2011).

Columns and labels:
PuhB = PuhB (Mycolicibacterium brisbanense, UniProt B8R4K0); assay: Hydrolysis of phenylurea, carbamate and organophosphate substrates by purified PuhB (LCMS / FBBS / A400 assays)
PuhA = PuhA (Arthrobacter globiformis, UniProt B8R4L9); assay: Hydrolysis of phenylurea, carbamate and organophosphate substrates by purified PuhA (LCMS / FBBS / A400 assays)
[1] = tested on: CN(C)C(=O)Nc1ccc(Cl)c(Cl)c1; assay: purified protein, by the assay type; details: pH 6.9, 25.0 °C
[2] = Activity of native PuhA and PuhB at each purification step (DCA formation); type: biochemical
Description: (§1) Protein concentration was estimated using the Bio-rad protein assay (Bradford), with bovine serum albumin used as standard. Protein purity was monitored using sodium dodecyl sulphate-polyacrylamide gel electrophoresis (SDS-PAGE) stained with Coomassie brilliant blue. Where PuhA and B concentrations were estimated in semi purified extracts, SDS-PAGE gels were scanned using Labscan v5 (Amersham Biosciences) and band densitometry performed with Total lab TL100 (Nonlinear dynamics). Talon cobalt resin (BD Biosciences) was used for the purification of hexa-histidine tagged protein. Untagged protein was purified by ammonium sulfate (AS) precipitiation followed by hydrophobic interaction chromatography (HIC; Phenylsepharose), anion exchange chromatography (AEX; Macro Q) and size exclusion chromatography (SEC; Superose 6 or Sephadex 200). All columns were purchased from GE Healthcare. The hydrophobic interaction column was equilibrated with Tris (pH 8)/1 M ammonium sulfate and bound protein was then eluted with Tris (pH 8) over 400 mL. Protein was bound to the anion exchange column with Tris (pH 8) and eluted with a gradient of Tris (pH 8)/1 M NaCl over 500 mL. The buffer was exchanged to 25 mM HEPES/50 mM KCl (pH 8) during SEC and the protein was stable in this buffer at 4° C. for several weeks. The oligomeric structure was estimated with a Superose 6 size exclusion column calibrated with the following protein standards (kDa): thyroglobulin (669), ferritin (440), catalase (232) and aldolase (158). Standard tryptic peptide mass fingerprinting was used to confirm the identity of proteins excised from polyacrylamide gels by liquid chromatography electro spray ionisation mass spectroscopy/mass spectroscopy (LC ESI MS/MS) ion trap following the method of Campbell et al. (2008).

[3] = Stability in the presence of the solvents acetonitrile and methanol; type: biochemical; details: 1-18% v/v solvent
Description: (§2) The influence of solvents (acetonitrile and methanol) was examined by using 7 concentrations from 0.4-18.2% over 1 hour duplicate assays with 77 μM diuron and monitored by LCMS. The effect of temperature on the activity of the enzymes was determined in two ways: firstly, the temperature at which reaction was catalysed was controlled at 12 temperatures ranging from 2-60° C. with 154 μM diuron; secondly, enzyme was preincubated at 6 temperatures from 30-55° C. for 10 minutes prior to 1 hour assays at 25° C. The residual activity data was obtained by LCMS and fitted to the Boltzmann function (eq 1)

[4] = Thermal stability: residual activity after 10 minutes pre-incubation, Boltzmann fit; type: biochemical
Description: as §2
(§3) A bell shaped model (eq 2)

[5] = Diuron hydrolase activity in the soluble fraction of recombinant expression hosts; type: biochemical
Description: PuhA and PuhB were amplified as N-hexa-histidine tagged fusions from pET14b (Novagen) in E. coli rosetta II cells (Novagen) and pMV261 (Stover et al., 1991) in M. smegmatis mc2. Protein without hexa-histidine tags was later expressed in M. smegmatis mc2. The PCR primers used in these cloning procedures are noted in Table 2 (SEQ ID NOs 5 to 13).
(§4) Pwo polymerase (Roche) and restriction enzymes NdeI, BamHI and HindIII (Fermentas) were used following manufacturers' protocols. Electro-competent E. coli strains JM109 (Promega) were utilised for transformation of ligation reactions (using Promega ligase). Protein expressions in E. coli were inoculated (1% v/v) with an overnight seed culture in LB and then incubated with shaking at 20° C. for 11 hours followed by induction with 0.1 mM isopropyl-β-D-thiogalactopyranoside (IPTG) for 3 hours. M. smegmatis expressions were amended with 0.05% tween 80 and grown in LB at 28° C. for 2-4 days with no induction. Clarified cell-free extracts were obtained by resuspending the bacteria in 25 mM Tris (pH 8) followed by 3 passes through a French pressure cell (Thermo) and centrifugation at 27,000 g (Beckman Avanti).

[6] = Bronsted plots (pKa of leaving group vs log kcat) for N-dimethyl phenylureas; type: biochemical; details: slope between pKa 4-5
Description: (§5) was used to fit an activity y, either log(kcat) and log(kcat/Km) vs. pH. (y)^max is the plateau value and pKa^1 and pKa^2 are the apparent pKa values for the acidic and basic groups, respectively. Equations were fitted to the data using Kaleidagraph v3.6 (Synergy Software). The substrate pKa values were obtained via an online database www.syrres.com/esc/physdemo.htm (Syracuse Research Corporation).

[7] = Activity of PuhA and PuhB expressed in M. smegmatis at each purification step (PNP release); type: biochemical
Description: as §4, §1

[8] = pH dependence of kcat, kcat/Km and Km with diuron in constant ionic strength buffer; type: biochemical
Description: as §3, §5

Sequence of PuhB (B8R4K0 entry or part of it): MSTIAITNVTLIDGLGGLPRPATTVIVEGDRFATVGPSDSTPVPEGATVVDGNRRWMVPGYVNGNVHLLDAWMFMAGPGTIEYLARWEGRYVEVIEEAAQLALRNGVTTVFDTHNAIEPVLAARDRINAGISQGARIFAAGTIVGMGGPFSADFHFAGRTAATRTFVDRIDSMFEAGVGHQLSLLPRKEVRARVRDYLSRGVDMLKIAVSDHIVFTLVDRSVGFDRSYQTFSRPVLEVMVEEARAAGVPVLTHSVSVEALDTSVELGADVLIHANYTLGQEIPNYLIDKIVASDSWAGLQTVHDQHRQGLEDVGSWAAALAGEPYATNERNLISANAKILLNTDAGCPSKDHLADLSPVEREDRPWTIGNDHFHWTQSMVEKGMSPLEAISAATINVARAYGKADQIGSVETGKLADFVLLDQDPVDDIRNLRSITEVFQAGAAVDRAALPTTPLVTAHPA

## CNC(=O)N(C)c1nnc(C(C)(C)C)s1 [tebuthiuron]
PuhB; PuhB
  hydrolysis / turnover of the substrate (in words): no detectable hydrolysis
PuhA; PuhA
  hydrolysis / turnover of the substrate (in words): no detectable hydrolysis

## CON(C)C(=O)Nc1ccc(Cl)c(Cl)c1 [linuron]
PuhB; enzyme not given
  turnover rate (kcat), fold higher than that of diuron: ~9 fold
PuhA; enzyme not given
  turnover rate (kcat), fold higher than that of diuron: ~9 fold

## PuhA (Arthrobacter globiformis)
[1]; other: PuhA
  Km: 55.0 µM

## PuhB (Mycolicibacterium brisbanense)
[1]; other: PuhB
  Km: 11.0 µM

## O=C(Nc1ccccc1)Nc1cnns1 [thidiazuron]
PuhB; PuhB
  hydrolysis / turnover of the substrate (in words): no detectable hydrolysis
PuhA; PuhA
  hydrolysis / turnover of the substrate (in words): no detectable hydrolysis

## CCOP(=O)(OCC)Oc1ccc([N+](=O)[O-])cc1 [paraoxon ethyl]
PuhB; PuhB
  hydrolysis / turnover of the substrate (in words): only slightly lower than isoproturon
PuhB; PuhB, listed as ethyl paraoxon
  hydrolysis / turnover of the substrate (in words): turned over by both proteins
PuhA; PuhA
  hydrolysis / turnover of the substrate (in words): only slightly lower than isoproturon
PuhA; PuhA, listed as ethyl paraoxon
  hydrolysis / turnover of the substrate (in words): turned over by both proteins

## CN(C)C(=O)Oc1ccc([N+](=O)[O-])cc1 [DMNPC, N-dimethyl, O-4-nitrophenyl carbamate]
PuhB; PuhB
  hydrolysis / turnover of the substrate (in words): turned over at a higher efficiency than poor phenylurea substrates
PuhA; PuhA
  hydrolysis / turnover of the substrate (in words): turned over at a higher efficiency than poor phenylurea substrates

## CNC(=O)Oc1cccc2ccccc12 [carbaryl]
PuhB; PuhB
  hydrolysis / turnover of the substrate (in words): neither enzyme catalysed the hydrolysis
PuhA; PuhA
  hydrolysis / turnover of the substrate (in words): neither enzyme catalysed the hydrolysis

## CCCCN(C)C(=O)Nc1ccc(Cl)c(Cl)c1 [neburon]
PuhB; PuhB
  hydrolysis / turnover of the substrate (in words): no detectable hydrolysis
PuhA; PuhA
  hydrolysis / turnover of the substrate (in words): no detectable hydrolysis

## CN(C)C(=O)Nc1ccc(-n2nc(C(C)(C)C)oc2=O)c(Cl)c1 [dimefuron]
PuhB; PuhB
  hydrolysis / turnover of the substrate (in words): no detectable hydrolysis
PuhA; PuhA
  hydrolysis / turnover of the substrate (in words): no detectable hydrolysis

## Cc1nc(N(C)C)nc(OC(=O)N(C)C)c1C [pirimicarb]
PuhB; PuhB
  catalytic efficiency, fold lower than diuron: 10^3 fold
  hydrolysis / turnover of the substrate (in words): slowly turned over
PuhA; PuhA
  catalytic efficiency, fold lower than diuron: 10^4 fold
  hydrolysis / turnover of the substrate (in words): slowly turned over

## CC1CCCCC1NC(=O)Nc1ccccc1 (stereo not drawn) [siduron]
PuhB; PuhB
  hydrolysis / turnover of the substrate (in words): no detectable hydrolysis
PuhA; PuhA
  hydrolysis / turnover of the substrate (in words): no detectable hydrolysis

## CCN(CC)C(=O)SCc1ccc(Cl)cc1 [thiobencarb]
PuhB; PuhB
  hydrolysis / turnover of the substrate (in words): neither enzyme catalysed the hydrolysis
PuhA; PuhA
  hydrolysis / turnover of the substrate (in words): neither enzyme catalysed the hydrolysis

## CON(C)C(=O)Oc1ccc(Cl)c(Cl)c1 [carbamate analogue of linuron, 3,4-dichlorophenyl N-methoxy-N-methylcarbamate]
PuhB; PuhB
  hydrolysis / turnover of the substrate (in words): as efficiently as the phenylurea
PuhA; PuhA
  hydrolysis / turnover of the substrate (in words): as efficiently as the phenylurea

B1: PuhA: phenylurea hydrolase from A. globiformis D47, amino acid sequence SEQ ID NO:3 (protein)
chain: MTTTAITDITLIDGRGGAPERGVTVLVDEDRFSAIGPTATTPIPDGARVVGGAGRWMVPGYVNGNVHLLDAWMFMVGPGTIEYLARWEGRYVEVIEEAAQLVLRNGVTTVFDTYNAIEPVLAARDRINAGTSAGARIFAAGTIVGLGGPFSADFHFIGQQAASRTFVNRIDAMFEAGVGHQLSLLPRNEVRSRVRDYLARGVDMLKIAVSDHIVFTVGFDRSCQTFSRPVLEVMFEEARAAGVPVLTHSVSVEALDTSVDLGADVLIHANYTLGQHIPDYLIDKIAASDSYAGLQTVHHEHREGLERVGSWAATLAGEPYASNERALIRAKAKILMNTDAGCPSKDHLADLSPAEREDRPWTIGGDHFHWTQSIVEKGMTPLEAISAATLNVARAYGKDADIGSVETGKLADFVLLDADPTADIRHLRSISAVYQAGVAVDRGALPTTPLVTAHPA
modifications: Arthrobacter globiformis D47
[2]; AS (ammonium sulfate)
  Activity (nmol DCA/μg/hour): 0.18 nmol DCA/μg/hour
[2]; CFE (cell free extract)
  Activity (nmol DCA/μg/hour): 0.05 nmol DCA/μg/hour
[2]; HIC
  Activity (nmol DCA/μg/hour): 0.73 nmol DCA/μg/hour
  Estimated specific activity (mol/mol/min): 10.20 mol/mol/min
[2]; SEC
  Activity (nmol DCA/μg/hour): 2.79 nmol DCA/μg/hour
  Estimated specific activity (mol/mol/min): 7.02 mol/mol/min
[3]
  activity in the presence of methanol and acetonitrile (in words): significantly inhibited
[4]; 10 minutes incubation at 40° C.
  residual activity after incubation (in words): retaining significant activity
[4]; 10 minutes pre-incubation, then 1 hour assay at 25° C.
  Tm indicating 50% activity retained: 46.6 °C
[5]; expressed in E. coli Rosetta 2 DE3 from pET14b
  specific activity in the soluble fraction, fold lower compared to the native expression: ~10 fold
[5]; expressed in M. smegmatis from pMV261
  activity in the soluble fraction (in words): comparable to that measured in the native expressions
[6]
  βlg: −1.6
[7]; AEX
  Activity (mM PNP/mg/min): 6.2 mM PNP/mg/min
[7]; CFE
  Activity (mM PNP/mg/min): 0.3 mM PNP/mg/min
[7]; HIC
  Activity (mM PNP/mg/min): 4.3 mM PNP/mg/min
[7]; SEC
  Activity (mM PNP/mg/min): 7.8 mM PNP/mg/min
[8]; acidic shoulder
  pKe1: 4.2
  pKes1: 5.1
[8]; basic shoulder
  pKe2: 8.9
  pKes2: 10.2
[8]; basic side
  pKe of the decrease in catalytic efficiency: ~10
